According to publication PMC8551311, “Energy transfer between the nicotinamide nucleotide transhydrogenase and ATP synthase of Escherichia coli” (Scientific Reports, 2021):

Tests used:
[1] = target: T1, E. coli F1F0 ATP synthase (Escherichia coli, UniProt P0ABB0+P0ABB4); test: ATP synthesis in proteoliposomes, luciferin/luciferase luminescence; format: biochemical; set-up: gene atpA; with ATP synthase gamma chain; ATP synthase subunit delta; ATP synthase epsilon chain; ATP synthase subunit a; ATP synthase subunit b; ATP synthase subunit c; conditions: 250 μM ADP, 40 mM KH2PO4, 5 mM MgCl2, 1.5 mM NAD+, 750 μM NADPH; 50 mM HEPES pH 7.5, 100 mM KCl; co-reconstituted with transhydrogenase
[2] = target: T1, E. coli F1F0 ATP synthase; set-up: gene atpA; conditions: 250 μM ATP, 2-4 mM MgCl2; 50 mM HEPES pH 7.5, 100 mM KCl; co-reconstituted with transhydrogenase

SMILES | ATP synthesis in proteoliposomes, luciferin/luciferase luminescence [1] | ATP-driven proton pumping in proteoliposomes (ACMA quench); APADH absorbance 375 [2]
Nc1ncnc2c1ncn2[C@@H]1O[C@H](COP(=O)(O)OP(=O)(O)O)[C@@H](O)[C@H]1O [ADP] | upon addition of NADPH, continuous ATP synthesis is observed | –
Nc1ncnc2c1ncn2[C@@H]1O[C@H](COP(=O)(O)OP(=O)(O)OP(=O)(O)O)[C@@H](O)[C@H]1O [ATP] | – | addition of ATP energized inward proton pumping by ATP synthase
